Results reported in article PMC5285354, “Cationic Net Charge and Counter Ion Type as Antimicrobial Activity Determinant Factors of Short Lipopeptides” (Frontiers in Microbiology, 2017).
≈ marks a conversion by molar mass, not a printed value. Read-outs that look alike come from different tables or passages of the source. Where a SMILES comes first, the peptide text is derived from it. The star is where a group is joined. Lauroyl = CCCCCCCCCCCC(=O)*

Assays:
Assay type in all cases: cell-based
[1] = tested on: Proteus vulgaris (PCM 2668); conditions: 24 h
[2] = tested on: Pseudomonas aeruginosa (ATCC 9027); conditions: ATCC 9027, 24 h
[3] = tested on: Candida albicans (ATCC 10231)
[4] = tested on: Staphylococcus epidermidis (PCM 2118); conditions: for MIC Staphylococcus epidermidis: PCM 2118, 18 h; for MBC Staphylococcus epidermidis: PCM 2118, 24 h
Procedure, shortened: (§1)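 Broth microdilution per CLSI: Mueller-Hinton broth, 10^5 cfu/mL inoculum, 18 h at 37°C for bacteria; Sabouraud dextrose broth, 10^3 cfu/mL, 48 h at 25°C for fungi. MIC (μg/mL) is the lowest lipopeptide concentration inhibiting visible growth; MBC/MFC also determined. Triplicate on three days.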

[5] = tested on: Aspergillus brasiliensis (ATCC 16404); conditions: ATCC 16404, 48 h
Procedure, shortened: (§2)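 CLSI broth microdilution: bacteria in Mueller-Hinton broth at 10^5 cfu/mL inoculum, 18 h at 37°C; fungi in Sabouraud Dextrose broth at 10^3 cfu/mL, 48 h at 25°C. MIC (μg/mL) is the lowest lipopeptide concentration inhibiting visible growth; triplicate on three days.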

[6] = tested on: Candida albicans (ATCC 10231); conditions: ATCC 10231, 48 h
Procedure, shortened: as §2

[7] = tested on: Enterococcus faecalis (ATCC 29212); conditions: for MBC Enterococcus fecalis: ATCC 29212, 24 h
Procedure, shortened: as §1

[8] = tested on: Pseudomonas aeruginosa (ATCC 9027); conditions: ATCC 9027, 18 h
Procedure, shortened: as §2

[9] = tested on: Proteus vulgaris (PCM 2668); conditions: for MBC Proteus vulgaris: subculture on Mueller-Hinton II Agar, 24 h 37°C
Procedure, shortened: as §2

[10] = tested on: Candida tropicalis (PCM 2681); conditions: PCM 2681, 48 h
Procedure, shortened: as §2

[11] = tested on: Bacillus subtilis (ATCC 6633); conditions: for MIC Bacillus subtillis: ATCC 6633, 18 h; for MBC Bacillus subtillis: ATCC 6633, 24 h
Procedure, shortened: as §1

[12] = tested on: Escherichia coli (ATCC 25922); conditions: for MBC Escherichia coli: ATCC 25922, 24 h
Procedure, shortened: as §2

[13] = tested on: Klebsiella pneumoniae (ATCC 700603); conditions: for MBC Klebsiella pneumoniae: ATCC 700603, 24 h
Procedure, shortened: as §2

[14] = tested on: Staphylococcus aureus (ATCC 25923); conditions: for MBC Staphylococcus aureus: ATCC 25923, 24 h
Procedure, shortened: as §2

human red blood cells = conditions: 1 h
Procedure: The hemolytic activity of the lipopeptides was determined by exposing human red blood cells (4% v/v) to tested compounds at graded concentrations. Red blood cells were obtained from a healthy donor. EDTA was used to prevent the blood clotting. The plasma was removed via centrifugation and the erythrocytes were washed three times with PBS. The red blood cells were suspended in PBS and incubated with different concentrations of lipopeptides at 37°C for 1 h and centrifuged for 5 min at 1000 × g. The supernatants were transferred to a sterile 96-well plate and hemoglobin release was measured with an Epoch microplate spectrophotometer (BioTek, USA) by recording the absorbance at 550 nm. A 0.1% Triton X-100 solution was used as the positive control (100% of hemolysis) and pure PBS as the negative (0% of hemolysis). Minimum hemolytic concentration (MHC) was taken as the lowest concentration which induced 10% of hemolysis.

| MIC Staphylococcus epidermidis [4] [µg/mL] | MIC Aspergillus brasiliensis [5] [µg/mL] | MIC Candida albicans [6] [µg/mL] | MIC Enterococcus fecalis ([7]; ATCC 29212, 18 h) [µg/mL] | MIC Pseudomonas aeruginosa [8] [µg/mL] | MIC Candida tropicalis [10] [µg/mL] | MIC Bacillus subtillis [11] [µg/mL] | MIC Escherichia coli ([12]; ATCC 25922, 18 h) [µg/mL] | MIC Klebsiella pneumoniae ([13]; ATCC 700603, 18 h) [µg/mL] | MIC Staphylococcus aureus ([14]; ATCC 25923, 18 h) [µg/mL] | SMILES | MBC Pseudomonas aeruginosa [2] [µg/mL] | MBC Staphylococcus epidermidis [4] [µg/mL] | MFC Aspergillus brasiliensis [5] [µg/mL] | MFC Candida albicans [6] [µg/mL] | MBC Enterococcus fecalis [7] [µg/mL] | MFC Candida tropicalis [10] [µg/mL] | MBC Bacillus subtillis [11] [µg/mL] | MBC Escherichia coli [12] [µg/mL] | MBC Klebsiella pneumoniae [13] [µg/mL] | MBC Staphylococcus aureus [14] [µg/mL] | also measured |
| --- | --- | --- | --- | --- | --- | --- | --- | --- | --- | --- | --- | --- | --- | --- | --- | --- | --- | --- | --- | --- | --- |
| 4 (≈ 7.82 µM) | 128 (≈ 250 µM) | 128 (≈ 250 µM) | 8 (≈ 15.6 µM) | 8 (≈ 15.6 µM) | 128 (≈ 250 µM) | 4 (≈ 7.82 µM) | 8 (≈ 15.6 µM) | 16 (≈ 31.3 µM) | 8 (≈ 15.6 µM) | CCCCCCCCCCCCCCCC(=O)N[C@@H](CCCCN)C(=O)N[C@@H](CCCCN)C(N)=O [C16-KK-NH2] | 8 (≈ 15.6 µM) | 4 (≈ 7.82 µM) | 128 (≈ 250 µM) | 128 (≈ 250 µM) | 8 (≈ 15.6 µM) | 128 (≈ 250 µM) | 4 (≈ 7.82 µM) | 8 (≈ 15.6 µM) | 16 (≈ 31.3 µM) | 8 (≈ 15.6 µM) | MBC Proteus vulgaris [1]: >512 µg/mL; MFC Candida albicans, lipopeptides without TFA counter ion [3]: 256 µg/mL (≈ 500 µM); MIC Candida albicans, lipopeptides without TFA counter ion [6]: 256 µg/mL (≈ 500 µM); MBC Enterococcus fecalis, lipopeptides without TFA counter ion ([7]; ATCC 29212, 18 h): 4 µg/mL (≈ 7.82 µM); MIC Enterococcus fecalis, lipopeptides without TFA counter ion ([7]; ATCC 29212, 18 h): 4 µg/mL (≈ 7.82 µM); MIC Proteus vulgaris ([9]; 18 h): >512 µg/mL; MBC Escherichia coli, lipopeptides without TFA counter ion ([12]; ATCC 25922, 18 h): 4 µg/mL (≈ 7.82 µM); MIC Escherichia coli, lipopeptides without TFA counter ion ([12]; ATCC 25922, 18 h): 4 µg/mL (≈ 7.82 µM); MBC Klebsiella pneumoniae, lipopeptides without TFA counter ion ([13]; ATCC 700603, 18 h): 32 µg/mL (≈ 62.5 µM); MIC Klebsiella pneumoniae, lipopeptides without TFA counter ion ([13]; ATCC 700603, 18 h): 16 µg/mL (≈ 31.3 µM); MBC Staphylococcus aureus, lipopeptides without TFA counter ion ([14]; ATCC 25923, 18 h): 4 µg/mL (≈ 7.82 µM); MIC Staphylococcus aureus, lipopeptides without TFA counter ion ([14]; ATCC 25923, 18 h): 4 µg/mL (≈ 7.82 µM) |
| 128 (≈ 333 µM) | 256 (≈ 666 µM) | 512 (≈ 1330 µM) | 256 (≈ 666 µM) | 256 (≈ 666 µM) | 512 (≈ 1330 µM) | 128 (≈ 333 µM) | 256 (≈ 666 µM) | 256 (≈ 666 µM) | 256 (≈ 666 µM) | CCCCCCCCCCCC(=O)N[C@@H](CCCCN)C(=O)NCC(N)=O [C12-KG-NH2] (Lauroyl-Lys-Gly-NH2) | 512 (≈ 1330 µM) | 128 (≈ 333 µM) | 512 (≈ 1330 µM) | 512 (≈ 1330 µM) | 256 (≈ 666 µM) | 512 (≈ 1330 µM) | 256 (≈ 666 µM) | 512 (≈ 1330 µM) | 512 (≈ 1330 µM) | 512 (≈ 1330 µM) | Hemolysis HC10 (MHC), concentration of lipopeptide inducing 10% of hemolysis (human red blood cells): 1000 µg/mL; MBC Proteus vulgaris ([9]; PCM 2668, TFA salt, triplicate): >2000 µg/mL |
| 256 (≈ 449 µM) | 1000 (≈ 1760 µM) | 1000 (≈ 1760 µM) | 512 (≈ 899 µM) | 1000 (≈ 1760 µM) | 1000 (≈ 1760 µM) | 64 (≈ 112 µM) | 2000 (≈ 3510 µM) | 2000 (≈ 3510 µM) | 2000 (≈ 3510 µM) | CCCCCCCCCCCC(=O)N[C@@H](CCCCN)C(=O)NCC(=O)N[C@@H](CCCCN)C(=O)NCC(N)=O [C12-KGKG-NH2] (Lauroyl-KGKG-NH2) | 1000 (≈ 1760 µM) | 512 (≈ 899 µM) | 1000 (≈ 1760 µM) | 2000 (≈ 3510 µM) | 512 (≈ 899 µM) | 2000 (≈ 3510 µM) | 64 (≈ 112 µM) | 2000 (≈ 3510 µM) | 2000 (≈ 3510 µM) | 2000 (≈ 3510 µM) | Hemolysis HC10 (MHC), concentration of lipopeptide inducing 10% of hemolysis (human red blood cells): 256 µg/mL; MIC Proteus vulgaris ([9]; PCM 2668, TFA salt, Mueller-Hinton broth, 10^5 cfu/mL, 18 h 37°C, triplicate): >2000 µg/mL; MBC Proteus vulgaris ([9]; PCM 2668, TFA salt, triplicate): >2000 µg/mL |
